{"source": "patent US20250339531A1", "about": "“DUX4 POLYPEPTIDES AND NUCLEIC ACIDS FOR TREATING INFLAMMATORY AND AUTOIMMUNE CONDITIONS” (Fred Hutchinson Cancer Center, priority 2021, published 2025)", "key": {"STAT1": {"biological_target": "T1, STAT1 (Homo sapiens, UniProt P42224)", "T1 construct": "co-localization of endogenous STAT1 and pSTAT1 701 with the iDUX4-CTD; endogenous in cells; host or cells: MB135 human myoblasts carrying doxycycline-inducible DUX4 / DUX4-CTD / DUXB / Dux transgenes, with or without IFNG", "T1 sequence (P42224 1-750)": "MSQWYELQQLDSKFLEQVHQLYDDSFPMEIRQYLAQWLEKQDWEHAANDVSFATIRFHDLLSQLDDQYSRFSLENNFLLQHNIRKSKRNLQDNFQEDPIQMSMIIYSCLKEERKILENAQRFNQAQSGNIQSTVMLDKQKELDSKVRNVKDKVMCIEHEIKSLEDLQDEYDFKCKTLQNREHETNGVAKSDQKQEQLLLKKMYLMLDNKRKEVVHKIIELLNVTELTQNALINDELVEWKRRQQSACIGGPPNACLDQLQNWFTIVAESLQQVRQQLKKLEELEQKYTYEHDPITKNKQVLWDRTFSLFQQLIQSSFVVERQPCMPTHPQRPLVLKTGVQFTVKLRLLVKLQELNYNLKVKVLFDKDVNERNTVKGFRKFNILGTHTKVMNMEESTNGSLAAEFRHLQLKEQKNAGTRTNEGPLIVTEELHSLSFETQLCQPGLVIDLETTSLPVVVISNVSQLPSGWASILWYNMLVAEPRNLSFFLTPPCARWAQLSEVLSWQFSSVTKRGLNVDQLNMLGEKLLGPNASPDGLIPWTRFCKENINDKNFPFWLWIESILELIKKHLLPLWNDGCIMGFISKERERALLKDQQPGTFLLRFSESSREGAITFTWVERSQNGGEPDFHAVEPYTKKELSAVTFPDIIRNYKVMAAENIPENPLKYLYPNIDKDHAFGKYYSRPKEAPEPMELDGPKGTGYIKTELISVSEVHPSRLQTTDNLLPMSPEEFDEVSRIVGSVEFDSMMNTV", "assay": "Immunofluorescence of STAT1 distribution", "type": "cell-based", "settings": "MB135 cells, IFNG ± doxycycline", "method": "Cells were fixed for 10 minutes with 2% paraformaldehyde (Thermo Scientific) for DUX4/STAT1 and 4% paraformaldehyde for DUX4/IDO1 then permeabilized for 10 minutes with 0.5% Triton X-100 (Sigma), both at room temperature with gentle shaking. Cells were then blocked for 2 hours with PBS/0.3M glycine/3% BSA at room temperature with gentle shaking. Primary antibodies were incubated at 4° C. overnight: mouse anti-FLAG M2 1:500 (Sigma #F1804), rabbit anti-STAT1 mAb 1:750 (Abcam #ab109320), rabbit anti-IDO1 (D5J4E) 1:100 (Cell Signaling Tech 86630S), and mouse anti-DUX4 (P2G4) 1:250 (Geng et al., 2011). Cells were washed three times with 1×PBS containing 3% BSA, then secondary antibodies were incubated for 1 hr at room temperature: FITC-conjugated donkey anti-rabbit (Jackson immunoResearch) or TRITC-conjugated donkey anti-mouse (Jackson ImmunoResearch). Cells were washed once with 1×PBS containing 3% BSA then stained with DAPI (Sigma) for 10′ at room temperature and then visualized."}, "[1]": {"test_system": "de novo protein synthesis", "assay": "[35S]-methionine/cysteine metabolic labeling of nascent protein synthesis", "type": "cell-based", "settings": "human myoblasts, 20-92 h after 4 h doxycycline pulse", "method": "Cells were treated with and without a 4-hour pulse of doxycycline. Eight hours prior to harvest, cells were incubated in DMEM depleted for methionine and cysteine (Gibco) supplemented with 90 microcurie 35S-methionine/cysteine (Perkin Elmer) and 50 ng/ml […] (R&D Systems). Protein samples were harvested in RIPA buffer [150 mM NaCl, 1% NP-40, 0.5% Na-deocycholate, 1% SDS, 25 mM Tris-HCl pH7.4] supplemented with protease and phosphatase inhibitor tablets (Pierce), followed by sonication in Diagenode Bioruptor. Lysate was cleared by centrifugation at 16000×g and quantified using a Pierce BCA assay (Thermo Scientific). Samples were run on NuPAGE precast polyacrylamide gels (Invitrogen). Gels were stained with InstantBlue Coomassie (Abcam) following manufacturer protocol, placed on whatman paper, wrapped in plastic wrap, and dried. Gels were exposed to phosphor screen, imaged on Typhoon Trio imager, and analyzed with ImageQuant."}, "[2]": {"test_system": "polysome association of mRNAs", "assay": "Polysome profiling with RNA-seq", "type": "cell-based, human", "settings": "DUX4 pulse+IFNG versus IFNG", "method": "Polysome profiling was performed using three 70% confluent 15 cm plates of MB135iDUX4 myoblasts per treatment condition (n=3). MB135iDUX4 myoblasts were pulsed with or without doxycycline for 4 hours, incubated for 48 hours, supplemented with 50 ng/mL IFNG for 16 hours, and harvested at a terminal time point of 68 hours. To harvest, culture medium was supplemented with 100 μg/mL cycloheximide (CHX; Sigma) and cells were incubated at 37° C. for 10 minutes. Media was aspirated and each 15 cm plate of adherent cells was rinsed with 25 mL ice-cold PBS supplemented with 100 μg/mL cycloheximide, lifted with 0.25% Trypsin-EDTA supplemented with CHX, and resuspended in growth media supplemented with CHX. Cells were pelleted at 300 RCF and washed twice with ice-cold PBS supplemented with CHX. Cell pellets were flash frozen in liquid nitrogen and stored at −80° C. Cells were lysed with Polysome Lysis Buffer (10 mM Tris pH 8, 140 mM NaCl, 7.5 mM MgCl2, 0.25% NP-40, 0.1% Triton X-100, 150 μg/mL CHX, 20 mM DTT, 640U/mL SUPERase-In RNase Inhibitor) and clarified before quantification with the Bio-Rad Protein Assay. 1.5 mg of clarified lysate was loaded onto a 10-50% sucrose gradient prepared in DEPC-treated water with 25 mM Tris pH 7.4, 25 mM NaCl, 5 mM MgCl2, 100 μg/mL heparin, and 2 mM DTT. Gradients were fractionated using a Biocomp Piston Gradient Fractionator. Samples were resuspended in Trizol and Drosophila S2 cells were added as an internal spike-in control. RNA was extracted using the Direct-zol RNA Miniprep Kit (Zymo Research). Relative mRNA abundance for each sample was normalized to Drosophila spike-in to account for differences in RNA extraction efficiency (Taruttis et al., 2017).\nTotal RNA was isolated using the NucleoSpin RNA kit (Machery-Nagel) or Direct-zol RNA Mini-Prep Kit (Zymo Research) according to manufacturer's instructions. RNA-seq libraries were prepared using the Illumina TruSeq RNA Sample Prep v2 Kit and sequenced using 50 bp paired-end sequencing on the Illumina NextSeq platform by the Fred Hutchinson Cancer Center Genomics Core."}, "[3]": {"test_system": "MHC class I proteins (HLA-A/B/C)", "assay": "Immunoblot of IFNG-induced MHC class I protein, continuous or pulsed protocol, MB135 myoblasts", "type": "cell-based, human", "settings": "4 h doxycycline pulse, IFNG 28, 52 or 76 h later"}}, "note": "Entries after “also recorded” stand apart in the source; their conditions may differ."}
{"substance": "DUX4: human DUX4 protein SEQ ID NO:3 expressed from doxycycline inducible codon altered transgene SEQ ID NO:2", "values": [{"measurement": "STAT1 nuclear distribution", "setting": "STAT1", "value": "no longer evenly distributed in the nucleus and shows overall decreased abundance"}, {"measurement": "nascent protein synthesis by 35S labeling", "setting": "[1]", "value": "global de novo protein synthesis was transiently reduced"}, {"measurement": "nascent protein synthesis by 35S labeling", "setting": "[1]; listed as wildtype DUX4", "value": "a reduction in labeled nascent proteins several days following a pulse"}, {"measurement": "mRNAs reduced in the high polysome fraction", "setting": "[2]; log 2FC<−1, p-adj<0.01", "value": 7765, "unit": "genes"}, {"measurement": "polysome-bound mRNAs significantly upregulated", "setting": "[2]; log 2FC>1, p-adj<0.01", "value": 256}, {"measurement": "genes with decreased polysome association (high/sub ratio)", "setting": "[2]; |log 2FC>1|, p-adj<0.01", "value": 5800, "unit": "genes"}, {"measurement": "genes with increased polysome association (high/sub ratio)", "setting": "[2]; |log 2FC>1|, p-adj<0.01", "value": 323, "unit": "genes"}, {"measurement": "polysome association of specific mRNAs", "setting": "[2]; high-to-sub polysome ratio", "value": "TOP mRNAs remain associated with polysomes; also recorded: HLA-A, HLA-B, and HLA-C mRNAs showed reduced polysome association; also recorded: PSMB8, PSMB9, and PSMB10 mRNAs remained associated with polysomes"}, {"measurement": "duration of MHC class I protein suppression after a pulse", "setting": "[3]", "value": "at Least Four Days; also recorded: becomes more pronounced between 24 and 72 hours after a pulse of DUX4; also recorded: for nearly four days; also recorded: suppressed MHC class I even four days later; also recorded: persists days after a DUX4 pulse"}]}
